Results published in US10864182B2, “Treatment of fragile X syndrome” (Healx Limited, priority 2018, dated 2020).
“Also recorded” adds a separate entry of the source.

Legend:
Assay type in all cases: in vivo
Fmr1 KO2 mice [1] = test: Open field (hyperactivity); details: 5 mg/kg by subcutaneous osmotic minipump, 15 days chronic treatment, 3 min observation
Excerpt: (§1) Fmr1 knockout 2 (Fmr1 KO2) mice were generated by deletion of the promoter and first exon of Fmr1. The Fmr1 KO2 it is both, protein and mRNA null. In this study we used Fmr1 KO2 and wild-type (WT) littermates generated on a C57BL/6J background and repeatedly backcrossed onto a C57BL/6J background for more than eight generations.
There were four treatment groups per compound in the study with 10 male mice used per treatment group (all at 8 weeks of age): Group 1: Fmr1 KO2 mice treated with vehicle (Fmr1 KO2-V), Group 2: wild-type littermate mice treated with vehicle (WT-V), Group 3: Fmr1 KO2 mice treated with sulindac (Fmr1 KO-Sulindac) and Group 4: wild-type littermate mice treated with sulindac (WT-Sulindac) […]
(§2) For experiments, all mice were tested once in the same apparatus. […] We assessed weight loss, fur loss, walking, eyes open, eye discharges and general behavior.
The open-field apparatus was used to test hyperactivity. […] The number of squares entered by the whole body (locomotor activity) was counted. The movement of the mouse around the field was recorded with a video tracking device for 3 min (version NT4.0, Viewpoint).
(§3) Data were analyzed by two-way analysis of variance (ANOVA) followed by post-test comparisons where appropriate using Tukey's Multiple Comparison Test. […]

Fmr1 KO2 mice [2] = test: Nesting; details: 5 mg/kg by subcutaneous osmotic minipump, 15 days, listed as sulindac
Excerpt: as §1
(§4) There were four treatment groups per compound in the study with 10 male mice used per treatment group (all at 8 weeks of age): Group 1: Fmr1 KO2 mice treated with vehicle (Fmr1 KO2-V), Group 2: wild-type littermate mice treated with vehicle (WT-V), Group 3: Fmr1 KO2 mice treated with sulindac (Fmr1 KO-Sulindac) and Group 4: wild-type littermate mice treated with sulindac (WT-Sulindac)
(§5) Sulindac: 5 mg/kg by osmotic minipumps (ALZET Osmotic Pumps Cupertino, Calif., USA) implanted subcutaneously for 15 days delivery.
as §2
The test was performed in individual cages. […] Mice were placed individually into the nesting cages 1 hr. before the dark phase, and the results were assessed the next morning. Nest building was scored on a 5 point scale. […]
as §3

Fmr1 KO2 mice [3] = test: Contextual fear conditioning; details: 5 mg/kg by subcutaneous osmotic minipump, 15 days, KO not different from WT
Excerpt: as §1, §4, §5
For experiments, all mice were tested once in the same apparatus. Prior to testing, mice were placed in the apparatus for some minutes before the experiment. The apparatus was cleaned with moist and dry tissues before testing each mouse. […] We assessed weight loss, fur loss, walking, eyes open, eye discharges and general behavior. […]
as §3

Fmr1 KO2 mice [4] = test: Three-chambered sociability task (social interaction); details: 5 mg/kg by subcutaneous osmotic minipump, 15 days
Excerpt: as §1, §4, §5, §2
In the three-chambered sociability task, a subject mouse was evaluated for its exploration of a novel social stimulus (novel mouse). […] The time spent exploring the novel mice was scored as exploration ratio.
as §3

CC1=C(CC(=O)O)c2cc(F)ccc2/C1=C\c1ccc([S+](C)[O-])cc1 (stereo not drawn) [Sulindac, (Z)-5-fluoro-2-methyl-1-[[p-(methylsulfinyl)phenyl]methylene]-1H-indene-3-acetic acid]
hyperactivity in open field (locomotor activity, number of squares entered) (Fmr1 KO2 mice [1]): fully rescuing; also recorded: normalizes hyperactivity
nesting behavior (nest building score, 5 point scale) (Fmr1 KO2 mice [2]): fully rescuing; also recorded: normalization in nesting behavior
freezing in contextual memory test (learning and memory) (Fmr1 KO2 mice [3]; p=0.3968): ameliorates the Fmr1 KO deficit in learning and memory
freezing in contextual memory test (learning and memory) (Fmr1 KO2 mice [3]; p=0.3968, listed as sulindac): partially rescuing
sociability (exploration index of the novel mouse) (Fmr1 KO2 mice [4]): partially improved such impairment
sociability (exploration index of the novel mouse) (Fmr1 KO2 mice [4]; listed as sulindac): partially rescuing
